The values below come from ChEMBL document CHEMBL4422656, “Kallikrein 5 inhibitors identified through structure based drug design in search for a treatment for Netherton Syndrome” (Bioorg Med Chem Lett, 2019).

One data set addresses Kallikrein-1 (Homo sapiens, UniProt P06870). In words: Inhibition of recombinant human N-terminal his-tagged KLK1 (19 to 262 residues) expressed in baculovirus infected sf9 insect cells using R110 labelled GSK3162232A as substrate measured every 30 secs intervals for 5 mins by Rhodamine110 dye-based fluorescence assay.
Data set [1] has as its target T1, Kallikrein-5 (Homo sapiens, UniProt Q9Y337).
T1 sequence (Q9Y337 whole entry): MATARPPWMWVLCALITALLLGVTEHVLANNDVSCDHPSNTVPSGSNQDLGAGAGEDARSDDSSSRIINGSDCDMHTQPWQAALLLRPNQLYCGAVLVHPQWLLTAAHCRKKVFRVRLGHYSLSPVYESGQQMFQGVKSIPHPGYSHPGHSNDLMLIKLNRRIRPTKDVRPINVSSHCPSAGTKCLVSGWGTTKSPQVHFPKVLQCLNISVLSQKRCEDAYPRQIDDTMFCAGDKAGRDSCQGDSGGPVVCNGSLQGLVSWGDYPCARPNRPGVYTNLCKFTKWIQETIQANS
In words: Inhibition of recombinant human FLAG-tagged KLK5 expressed in baculovirus infected sf9 insect cells using (Tos-Gly-Pro-Arg)2[R110].2TFA as substrate measured every 30 secs intervals for 5 mins by Rhodamine110 dye-based fluorescence assay.

For another data set, the species on record is Homo sapiens. The experiment in a line: Selectivity ratio of IC50 for recombinant human N-terminal his-tagged KLK1 (19 to 262 residues) to IC50 for recombinant human FLAG-tagged KLK5.
Data set [2] is described as follows: Dissociation constant, pKa of phenol group of the compound by UV spectrophotometric analysis. It counts as physicochemical.
The target of data set [3] is T2, Kallikrein-14 (Homo sapiens) (UniProt Q9P0G3).
T2 sequence (whole entry): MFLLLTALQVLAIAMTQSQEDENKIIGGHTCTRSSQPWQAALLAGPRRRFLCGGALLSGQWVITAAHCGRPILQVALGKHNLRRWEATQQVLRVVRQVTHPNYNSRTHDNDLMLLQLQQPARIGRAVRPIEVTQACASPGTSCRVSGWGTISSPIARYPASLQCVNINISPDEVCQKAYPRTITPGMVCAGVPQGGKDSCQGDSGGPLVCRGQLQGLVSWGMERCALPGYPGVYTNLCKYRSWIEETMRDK
The experiment in a line: Inhibition of KLK14 (unknown origin) at 100 uM using Boc-Val-Pro-Arg- AMC substrate incubated for 15 mins by fluorescence assay.

Data set [4] deals with T1, Kallikrein-5. The experiment in a line: Inhibition of KLK5 (unknown origin) using Boc-Val-Pro-Arg-AMC substrate incubated for 15 mins by fluorescence assay.
The target in data set [5] is T1, Kallikrein-5. The experiment in a line: Inhibition of recombinant human KLK5 using S-2288 substrate.
For a further data set, the target named is Kallikrein-7 (Homo sapiens, UniProt P49862). In words: Inhibition of recombinant human KLK7 using S-2586 substrate.
Chain of Kallikrein-7 (P49862 whole entry): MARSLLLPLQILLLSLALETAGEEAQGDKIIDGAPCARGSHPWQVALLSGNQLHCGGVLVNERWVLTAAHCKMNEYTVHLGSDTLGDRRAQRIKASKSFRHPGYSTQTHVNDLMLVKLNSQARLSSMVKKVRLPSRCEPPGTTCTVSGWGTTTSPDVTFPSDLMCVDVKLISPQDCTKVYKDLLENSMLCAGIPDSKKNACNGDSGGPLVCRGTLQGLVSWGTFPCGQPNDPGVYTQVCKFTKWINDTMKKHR

One may read the IC50 as the concentration at which inhibition is half-maximal. The pKa is the pH at which an ionisable group is half protonated. Broadly, the inhibition is the share of the control response that was lost under treatment. A higher inhibition goes with strong suppression.

Chain of Kallikrein-1 (P06870 whole entry, the tested form may be a part): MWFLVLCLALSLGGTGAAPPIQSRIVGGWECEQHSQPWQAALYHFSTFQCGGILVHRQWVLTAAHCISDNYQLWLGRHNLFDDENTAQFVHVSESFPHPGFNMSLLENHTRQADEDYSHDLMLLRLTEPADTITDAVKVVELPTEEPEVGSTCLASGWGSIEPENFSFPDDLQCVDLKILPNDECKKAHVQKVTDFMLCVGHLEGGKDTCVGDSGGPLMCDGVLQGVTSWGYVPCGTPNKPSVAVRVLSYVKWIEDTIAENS

Take `N=C(N)c1ccc(NC(=O)c2ccccc2O)cc1F`: the IC50 on Kallikrein-1 was 12.6 µM; on Kallikrein-5 [1] it was 20 µM.

Regarding `N=C(N)c1ccc(NC(=O)C2CCCNC2=O)cc1` (stereo unspecified), the IC50 was 501 µM at Kallikrein-1 and 10 µM on Kallikrein-5 [1]. In addition, in the data set filed under Homo sapiens, the Ratio IC50 came to 100.

In the case of `N=C(N)c1ccc(NC(=O)c2ccccc2O)c(F)c1`, the IC50 on Kallikrein-1 was 3.16 µM; on Kallikrein-5 [1], 2.51 µM.

Turning to `N=C(N)c1ccc(NC(=O)N2CCCNC2=O)cc1`, the IC50 on Kallikrein-1 is 631 µM; on Kallikrein-5 [1], 10 µM. Moreover, the Ratio IC50 in the data set listed under Homo sapiens was found to be 100.

Take `Cc1cc(C(=N)N)ccc1NC(=O)c1ccccc1O`: the figures for the IC50 on Kallikrein-1 and at Kallikrein-5 [1] were 5.01 µM and 12.6 µM, respectively.

On to `CCOc1cccc(C(=O)Nc2ccc(C(=N)N)cc2)c1O`, for which the IC50 on Kallikrein-1 was 0.126 µM; at Kallikrein-5 [1] it was 5.01 µM.

Turning to `COc1cccc(C(=O)Nc2ccc(C(=N)N)c(F)c2)c1O`, the IC50 on Kallikrein-1 was 0.251 µM; on Kallikrein-5 [1], 1 µM.

`Cc1cccc(C(=O)Nc2ccc(C(=N)N)cc2)c1O`: the IC50 is 3.16 µM at Kallikrein-1 and 7.94 µM at Kallikrein-5 [1]. For the same molecule, in data set [2], the pKa was 6.8.

Turning to `COc1cccc(C(=O)Nc2ccc(C(=N)N)cc2)c1O`, the IC50 at Kallikrein-1 was 0.316 µM; at Kallikrein-5 [1] it was 0.501 µM. In addition, the pKa in data set [2] was 6.6.

Take `N=C(N)c1ccc(NC(=O)c2cccc(O)c2O)cc1`: the IC50 at Kallikrein-1 is 3.98 µM; at Kallikrein-5 [1] it was 2.51 µM.

On to `N=C(N)c1ccc(NC(=O)c2ccccc2O)cc1`, for which the concentration for half-maximal inhibition (IC50) at Kallikrein-1 was 12.6 µM; at Kallikrein-5 [1], 6.31 µM. In addition, in data set [2], the pKa was 6.8.

As to `Cn1cccc(C(=O)Nc2ccc(C(=N)N)cc2)c1=O`, the IC50 is 501 µM at Kallikrein-1 and 158 µM on Kallikrein-5 [1].

Take `Cn1c(C(=O)Nc2ccc(C(=N)N)cc2)nc2ccccc21`: the 50% inhibitory concentration (IC50) at Kallikrein-1 was 200 µM; at Kallikrein-5 [1], 12.6 µM. Moreover, the Ratio IC50 in the data set filed under Homo sapiens was 10.

As to `O=C1Oc2ccccc2CC1C(=O)Oc1nccc2ccccc12` (stereo unspecified), the inhibition in data set [3] came to 61%. Moreover, the IC50 at Kallikrein-5 [4] worked out at 7 µM.

For the molecule `COc1cccc(C(=O)Nc2ccc(C(=N)N)c(Cl)c2)c1O`, the IC50 at Kallikrein-1 was 1.26 µM; on Kallikrein-5 [1] it was 10 µM.

Take `N=C(N)c1ccc(NC(=O)c2cccc(Cl)c2O)cc1`: the values for the IC50 on Kallikrein-1 and on Kallikrein-5 [1] were 0.631 µM and 2.51 µM, respectively. Further, in data set [2], the pKa is 5.

For the molecule `CCOc1cc2c(=O)oc(-c3ccccc3OC)nc2cc1OC`, the IC50 on Kallikrein-5 [5] came out at 0.2 µM; at Kallikrein-7, 0.048 µM.
